Ki data for 1 compound are collected here from patent publication US20030176314A1, “Compounds for the treatment of pain” (priority 2001, published 2003).

pKi: −log10 of the molar value.

The assay addresses T1, human α2A adrenergic receptor (Homo sapiens, UniProt P08913).
T1 construct: host or cells: LM(tk-) cells, line L-α2A
T1 sequence (P08913 1-465): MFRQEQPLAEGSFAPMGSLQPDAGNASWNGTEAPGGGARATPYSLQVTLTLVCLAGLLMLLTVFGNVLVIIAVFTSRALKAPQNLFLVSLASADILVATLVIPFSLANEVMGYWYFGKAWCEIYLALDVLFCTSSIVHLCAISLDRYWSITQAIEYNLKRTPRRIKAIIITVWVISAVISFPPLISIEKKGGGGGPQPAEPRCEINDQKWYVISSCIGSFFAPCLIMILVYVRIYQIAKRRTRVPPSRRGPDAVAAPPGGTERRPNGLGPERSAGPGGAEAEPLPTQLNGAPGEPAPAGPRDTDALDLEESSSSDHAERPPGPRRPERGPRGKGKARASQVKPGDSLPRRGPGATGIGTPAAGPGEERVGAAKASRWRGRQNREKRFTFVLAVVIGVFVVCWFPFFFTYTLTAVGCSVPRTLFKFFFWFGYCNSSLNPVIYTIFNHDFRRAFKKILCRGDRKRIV
Put plainly: Binding at human α2A adrenergic receptor. Conditions: Table 8; read-out: hα2A Ki. The source says:
α2 Human Adrenergic Receptors: To determine the binding of compounds to human α2 receptors, LM(tk−) cell lines stably transfected with the genes encoding the α2A, α2B, and α2C receptors were used. The cell line expressing the α2A receptor is designated L-α2A, and was deposited on Nov. 6, 1992, under ATCC Accession No. CRL 11180. The cell line expressing the α2B receptor is designated L-NGC-α2B, and was deposited on Oct. 25, 1989, under ATCC Accession No. CRL 10275. The cell line expressing the α2C receptor is designated L-α2C, and was deposited on Nov. 6, 1992, under ATCC Accession No. CRL-11181. Cell lysates were prepared as described herin, and suspended in 25 mM glycyiglycine buffer (pH 7.6 at room temperature). Equilibrium competition binding assay were performed using […] (0.5 nM), and nonspecific binding was determined by incubation with 10 μM phentolamine. The bound radioligand was separated by filtration through GF/B filters using a cell harvester.
The binding affinity (Ki) of these compounds were tested according to the protocols described herein at the following receptors; human α1A, α1B, α1D, α2A, α2B, and α2C adrenergic receptors; human Y1, Y2, Y4, and Y5 receptors; and N-Methyl-D-aspartic acid (NMDA) receptor channels. The binding interactions of these compounds were additionally tested at the norepinephrine (NE) transporter (NE uptake) and serotonin (5-hydroxytryptamine (5HT)) transporter (5HT uptake) according to protocols described herein

As a reminder, the pKi is the negative decadic logarithm of the Ki, by convention in mol/L. As for `Cc1cc(NC(=N)N)nc2ccc(Cl)cc12` [Compound 4005A, N-(6-chloro-4-methyl-2-quinolinyl)guanidine], the negative logarithm of the Ki (pKi) was 6.70.
